The source made the active and inactive calls. No cut-off for these calls is given here.
Legend:
Staphylococcus aureus [1] = experiment: Antibacterial activity against methicillin-resistant Staphylococcus aureus CCARM 3089 assessed as reduction in bacterial growth at 8 uM incubated for 72 hrs in presence of chloramphenicol by spectrophotometry; assay type: functional; details: CCARM 3089, 72 h
Pseudomonas aeruginosa [2] = experiment: Antibacterial activity against multidrug-resistant Pseudomonas aeruginosa CCARM 2095 assessed as reduction in bacterial growth at 4 uM incubated for 72 hrs in presence of ciprofloxacin by spectrophotometry; assay type: functional; details: CCARM 2095, 72 h
Pseudomonas aeruginosa [3] = experiment: Antibacterial activity against multidrug-resistant Pseudomonas aeruginosa CCARM 2095 assessed as reduction in bacterial growth at 4 uM incubated for 72 hrs in presence of oxacillin by spectrophotometry; assay type: functional; details: CCARM 2095, 72 h
RAW264.7 [4] = experiment: Antiinflammatory activity in mouse RAW264.7 cells assessed as reduction in LPS-induced TNFalpha gene expression at 8 uM incubated for 6 hrs by qRT-PCR analysis; assay type: functional, cell-based
RAW264.7 [5] = experiment: Antiinflammatory activity in mouse RAW264.7 cells assessed as reduction in LPS-induced NO production at 10 uM incubated for 48 hrs by Griess reagent based assay; assay type: functional, cell-based
Escherichia coli = experiment: Antibacterial activity against Escherichia coli KCTC 1682 assessed as reduction in bacterial growth incubated for 18 hrs in presence of 4 uM FeCl3 by spectrophotometry based microtiter broth dilution method; assay type: functional; details: KCTC 1682, 18 h
Erythrocyte = experiment: Hemolytic activity in sheep RBC assessed as minimal hemolytic concentration causing 10% hemolysis incubated for 2 hrs by ELISA; assay type: ADME, cell-based, Ovis aries
Lipopolysaccharide (LPS) [6] = experiment: Displacement of BODIPY-TR-cadaverine from Escherichia coli O111:B4 LPS by fluorescence spectrophotometry
Staphylococcus aureus [7] = experiment: Potency index, ratio of MIC of LL-37 to MIC of compound for antibacterial activity against methicillin-resistant Staphylococcus aureus CCARM 3089 assessed as reduction in bacterial growth incubated for 18 hrs by spectrophotometry based microtiter broth dilution method; assay type: functional
Staphylococcus aureus [8] = experiment: Potency index, ratio of MIC of melittin to MIC of compound for antibacterial activity against methicillin-resistant Staphylococcus aureus CCARM 3090 assessed as reduction in bacterial growth incubated for 18 hrs by spectrophotometry based microtiter broth dilution method; assay type: functional
Staphylococcus aureus [9] = experiment: Antibacterial activity against Staphylococcus aureus KCTC 1621 assessed as reduction in bacterial growth incubated for 18 hrs in presence of […] by spectrophotometry based microtiter broth dilution method; assay type: functional; details: KCTC 1621, 18 h
Pseudomonas aeruginosa [10] = experiment: Potency index, ratio of MIC of melittin to MIC of compound for antibacterial activity against multidrug-resistant Pseudomonas aeruginosa CCARM 2095 assessed as reduction in bacterial growth incubated for 18 hrs by spectrophotometry based microtiter broth dilution method; assay type: functional
Pseudomonas aeruginosa [11] = experiment: Potency index, ratio of MIC of melittin to MIC of compound for antibacterial activity against multidrug-resistant Pseudomonas aeruginosa CCARM 2109 assessed as reduction in bacterial growth incubated for 18 hrs by spectrophotometry based microtiter broth dilution method; assay type: functional
Staphylococcus aureus [12] = experiment: Potency index, ratio of MIC of melittin to MIC of compound for antibacterial activity against methicillin-resistant Staphylococcus aureus CCARM 3095 assessed as reduction in bacterial growth incubated for 18 hrs by spectrophotometry based microtiter broth dilution method; assay type: functional
Salmonella typhimurium = experiment: Antibacterial activity against Salmonella typhimurium KCTC 1926 assessed as reduction in bacterial growth incubated for 18 hrs by spectrophotometry based microtiter broth dilution method; assay type: functional, Salmonella enterica subsp. enterica serovar Typhimurium; details: Salmonella enterica, KCTC 1926, 18 h
Staphylococcus aureus [13] = experiment: Antibacterial activity against methicillin-resistant Staphylococcus aureus CCARM 3089 assessed as reduction in bacterial growth at 4 uM incubated for 72 hrs in presence of ciprofloxacin by spectrophotometry; assay type: functional; details: CCARM 3089, 72 h
Pseudomonas aeruginosa [14] = experiment: Antibacterial activity against Pseudomonas aeruginosa KCTC 1637 assessed as reduction in bacterial growth incubated for 18 hrs by spectrophotometry based microtiter broth dilution method; assay type: functional; details: KCTC 1637, 18 h
Pseudomonas aeruginosa [15] = experiment: Potency index, ratio of MIC of LL-37 to MIC of compound for antibacterial activity against multidrug-resistant Pseudomonas aeruginosa CCARM 2109 assessed as reduction in bacterial growth incubated for 18 hrs by spectrophotometry based microtiter broth dilution method; assay type: functional
Staphylococcus aureus [16] = experiment: Antibacterial activity against Staphylococcus aureus KCTC 1621 assessed as reduction in bacterial growth incubated for 18 hrs by spectrophotometry based microtiter broth dilution method; assay type: functional; details: KCTC 1621, 18 h
Pseudomonas aeruginosa [17] = experiment: Potency index, ratio of MIC of LL-37 to MIC of compound for antibacterial activity against multidrug-resistant Pseudomonas aeruginosa CCARM 2095 assessed as reduction in bacterial growth incubated for 18 hrs by spectrophotometry based microtiter broth dilution method; assay type: functional
Lipopolysaccharide (LPS) [18] = experiment: Displacement of BODIPY-TR-cadaverine from Escherichia coli O111:B4 LPS at 16 uM by fluorescence spectrophotometry relative to control
RAW264.7 [19] = experiment: Antiinflammatory activity in mouse RAW264.7 cells assessed as reduction in LPS-induced NO production at 4 uM incubated for 24 hrs by Griess reagent based assay relative to control; assay type: functional; details: RAW264.7, 24 h
Staphylococcus aureus [20] = experiment: Antibacterial activity against Staphylococcus aureus KCTC 1621 assessed as reduction in bacterial growth incubated for 18 hrs in presence of 20% human serum by spectrophotometry based microtiter broth dilution method; assay type: functional; details: KCTC 1621, 18 h

Work on `CC[C@H](C)[C@H](NC(=O)[C@H](CCCCN)NC(=O)[C@H](CCC(=O)O)NC(=O)[C@H](CCCCN)NC(=O)[C@H](CO)NC(=O)[C@H](CCCCN)NC(=O)[C@H](CCCNC(=N)N)NC(=O)[C@H](Cc1ccccc1)NC(=O)[C@H](Cc1ccccc1)NC(=O)[C@H](CC(=O)O)NC(=O)CNC(=O)[C@H](CC(C)C)NC(=O)[C@@H](N)CC(C)C)C(=O)NCC(=O)N[C@@H](CCCCN)C(=O)N[C@@H](CCC(=O)O)C(=O)N[C@@H](Cc1ccccc1)C(=O)N[C@@H](CCCCN)C(=O)N[C@@H](CCCNC(=N)N)C(=O)N[C@H](C(=O)N[C@H](C(=O)N[C@@H](CCC(N)=O)C(=O)N[C@@H](CCCNC(=N)N)C(=O)N[C@H](C(=O)N[C@@H](CCCCN)C(=O)N[C@@H](CC(=O)O)C(=O)N[C@@H](Cc1ccccc1)C(=O)N[C@@H](CC(C)C)C(=O)N[C@@H](CCCNC(=N)N)C(=O)N[C@@H](CC(N)=O)C(=O)N[C@@H](CC(C)C)C(=O)N[C@H](C(=O)N1CCC[C@H]1C(=O)N[C@@H](CCCNC(=N)N)C(=O)N[C@H](C(=O)N[C@@H](CCC(=O)O)C(=O)N[C@@H](CO)C(=O)O)[C@@H](C)O)C(C)C)[C@@H](C)CC)C(C)C)[C@@H](C)CC` [CATHELICIDIN] yielded an MIC (Staphylococcus aureus [1]) of 4 µM, an MIC (Pseudomonas aeruginosa [2]) of 2 µM and an MIC (Pseudomonas aeruginosa [3]) of 4 µM. The inhibition (RAW264.7 [4]) was “Active”.

H-LVIRWVRAGYKLYRAIKKK-NH2 was tested, and the Activity (RAW264.7 [5]) was “Active”, the MIC (Escherichia coli) was 4 µM and the MHC10 (Erythrocyte) was 105 µM. The inhibition (Lipopolysaccharide (LPS) [6]) was “Dose-dependent effect”, the Ratio (Staphylococcus aureus [7]) was 2 - 8 and the Ratio (Staphylococcus aureus [8]) was 2 - 8. For the same molecule, the MIC (Staphylococcus aureus [9]) was 4 µM, the Ratio (Pseudomonas aeruginosa [10]) was 2 - 8 and the Ratio (Pseudomonas aeruginosa [11]) was 2 - 8. For the same molecule, the Ratio (Staphylococcus aureus [12]) was 2 - 8, the MIC (Salmonella typhimurium) was 2 µM and the MIC (Staphylococcus aureus [13]) was 0.5 µM. For the same molecule, the MIC (Pseudomonas aeruginosa [14]) was 8 µM, the Ratio (Pseudomonas aeruginosa [15]) was 2 - 8 and the MIC (Staphylococcus aureus [16]) was 2 µM. The Ratio (Pseudomonas aeruginosa [17]) was 2 - 8, the inhibition (Lipopolysaccharide (LPS) [18]) was 100% and the inhibition at 4 µM (RAW264.7 [19]) was 94.2%. The MIC (Staphylococcus aureus [20]) was 4 µM.
